In US8636978B2, “Cyclized NGR peptide compounds, compositions, and methods of their use” (The United States of America, as Represented by the …, priority 2008, dated 2014):
Residues, ends and D or L forms follow the SMILES beside them. No end group written: not given here. *: point of attachment. OregonGreen488(6-carbonyl) = O=C1OC2(c3cc(F)c(O)cc3Oc3cc(O)c(F)cc32)c2cc(C(=O)*)ccc21

How the values were obtained:
HT-1080 (CD13+) cells = assay: Cell binding by epifluorescent microscopy, CD13-positive cells; format: cell-based, human; conditions: 37° C.
Protocol: (§1) Human fibrosarcoma (HT-1080) and human adenocarcinoma (MCF7) cells were purchased from American Type Culture Collection (ATCC, Manassas, Va.). HT-1080 cells were grown in MEME (ATCC) supplemented with 10% fetal bovine serum (ATCC), and MCF7 cells were grown in the same culture medium with the addition of 0.01 mg/mL bovine insulin (Sigma-Aldrich, St. Louis, Mo.). Both cell lines were maintained in a 5% CO2 incubator at 37° C. Anti-CD13 monoclonal antibody (WM15, Alexa Fluor 488-conjugated) was obtained from AbD Serotec (Raleigh, N.C.).
(§2) Cellular binding of cK(OG)NGRE to the CD13/APN marker was assessed by plating HT-1080 (CD13+) and MCF7 (CD13−) cells in eight-chambered slides (LabTekII, Nunc, Rochester, N.Y.) at a concentration of 15,000 cells/well. After 24 h, cells were washed once with phosphate-buffered saline (PBS) and incubated in complete culture media at 37° C. for 30 min with either cK(OG)NGRE (20 μM) or the anti-CD13 antibody (final concentration 2.5 μg/mL). Slides were washed twice with PBS for 5 min, fixed in 4% paraformaldehyde for 20 min, and mounted with Prolong Gold antifade reagent with DAPI (Invitrogen, Carlsbad, Calif.) and imaged with an epifluorescent microscope (Zeiss Axio Imager.M1, Thornwood, N.Y.) after 24 h. […]

MCF7 (CD13−) cells = assay: Cell binding by epifluorescent microscopy, CD13-negative cells; format: cell-based, human; conditions: cK(OG)NGRE 20 μM or anti-CD13 antibody 2.5 μg/mL, 37° C., 30 min
Protocol: as §1, §2

[1] = test system: CD13-positive HT-1080 cells

| Molecule | in vitro binding to HT-1080 cells (fluorescence micrographs) (HT-1080 (CD13+) cells; cK(OG)NGRE 20 μM or anti-CD13 antibody 2.5 μg/mL, 30 min) | localization of fluorescence in HT-1080 cells (HT-1080 (CD13+) cells; epifluorescent microscopy, 30 min incubation) | in vitro binding to MCF7 cells (fluorescence micrographs) (MCF7 (CD13−) cells) | EC50 [1] |
| --- | --- | --- | --- | --- |
| N=C(N)NCCC[C@@H]1NC(=O)CNC(=O)[C@H](CC(N)=O)NC(=O)[C@H](CCCCNC(=O)c2ccc3c(c2)C2(OC3=O)c3cc(F)c(O)cc3Oc3cc(O)c(F)cc32)NC(=O)[C@H](CCC(N)=O)NC1=O [cK(OG)NGRE] (cyclo(K(OregonGreen488(6-carbonyl))NGRQ)) | clearly demonstrated binding | internalization of the peptide | minimal binding | 61 µM |
| KNGRE [reference compound] | – | – | – | 220 µM |
